In patent US9346829B2, “5-HT3 receptor antagonists” (Takeda Phamaceutical Company Limited, priority 2012, dated 2016):
pIC50: −log10 of the molar value. Counter-ions that a name gives are not always drawn. Like-named read-outs stand apart in the source and are kept apart here.

How the values were obtained:
nicotinic α-7 receptor = nicotinic α-7 receptor (Homo sapiens (Human), UniProt P36544); experiment: Nicotinic α-7 receptor binding assay; settings: binding at the nicotinic α-7 receptor, carried out at Eurofins Pharma Services
nicotinic α-7 receptor, sequence (P36544 23-502): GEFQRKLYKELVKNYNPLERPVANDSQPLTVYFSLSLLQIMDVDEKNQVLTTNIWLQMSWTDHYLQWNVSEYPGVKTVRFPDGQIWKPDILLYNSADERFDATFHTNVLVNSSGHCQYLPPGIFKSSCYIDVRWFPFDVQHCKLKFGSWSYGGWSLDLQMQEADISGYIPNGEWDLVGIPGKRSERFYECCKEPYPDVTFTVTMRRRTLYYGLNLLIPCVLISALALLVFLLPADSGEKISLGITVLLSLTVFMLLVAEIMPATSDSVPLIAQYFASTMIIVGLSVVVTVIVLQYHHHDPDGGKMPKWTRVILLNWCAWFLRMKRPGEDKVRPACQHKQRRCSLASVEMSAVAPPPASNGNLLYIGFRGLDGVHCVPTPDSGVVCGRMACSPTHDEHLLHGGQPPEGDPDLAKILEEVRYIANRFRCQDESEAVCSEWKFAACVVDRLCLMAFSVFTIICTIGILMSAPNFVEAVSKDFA
Experimental: The evaluation of binding at the nicotinic α-7 receptor was carried out at Eurofins Pharma Services.

5-HT3a receptor = 5-HT3a receptor (Homo sapiens (Human), UniProt P46098); experiment: Inhibition of Ca flux activity of 5-HT3 in vitro assay; type: cell-based
5-HT3a receptor, sequence (P46098 24-478): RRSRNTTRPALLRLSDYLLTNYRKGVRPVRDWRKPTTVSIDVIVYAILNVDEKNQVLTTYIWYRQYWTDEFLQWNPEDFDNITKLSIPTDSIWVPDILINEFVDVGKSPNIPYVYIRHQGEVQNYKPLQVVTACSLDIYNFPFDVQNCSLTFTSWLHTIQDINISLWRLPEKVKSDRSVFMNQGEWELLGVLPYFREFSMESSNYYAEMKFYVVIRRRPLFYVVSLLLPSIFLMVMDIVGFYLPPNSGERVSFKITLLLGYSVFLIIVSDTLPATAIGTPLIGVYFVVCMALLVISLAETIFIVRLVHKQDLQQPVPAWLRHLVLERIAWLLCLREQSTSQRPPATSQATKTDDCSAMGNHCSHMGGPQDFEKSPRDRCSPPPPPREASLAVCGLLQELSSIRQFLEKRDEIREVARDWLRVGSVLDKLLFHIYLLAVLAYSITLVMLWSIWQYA
Experimental: The 5-HT3 antagonist activity of the compounds of the invention was determined by measuring the ability of the compounds to inhibit the calcium flux activity of […] receptor expressed in HEK-293T cells. HEK-293T cells were transfected with the 5-HT3a expression construct using Xtreme Gene 9 (Roche) in 150 mm tissue culture treated plates and incubated for 24 hours at 37° C. Cells were then split and plated at a density of 60K cells/well in poly-lysine coated, black 96-well plates with clear bottoms (BD BioSciences) and incubated overnight at 37° C. Growth media was removed and cells loaded with 200 uL calcium indicator dye in HBSS containing 20 mM HEPES (Calcium 5 Assay kit, Molecular Devices) and incubated at 37° C. for 1 hour. While cells were incubating, the 10× antagonist and agonist/antagonist addition plates were made. For 10× antagonist plate: half log serial dilutions (final concentrations range from 10^−7 through 10^−10 with the bottom well a negative, no ligand control) were made from test compounds in DMSO at a 1000× concentration and then diluted to 10× in HBSS/20 mM HEPES. For addition plate: 5HT was diluted to 100× in HBSS/20 mM HEPES (final concentration in the assay—216 nM) and 15 uL was added to each well of the addition plate, 15 uL of 10× compound was also added to the addition plate, and finally 120 uL of HBSS/20 mM HEPES (for a total of 150 uL). Cells were then removed from the incubator and equilibrated to room temperature for 10 minutes, then 22.5 uL of 10× test compounds were added in triplicate to the plates and incubated at room temperature for 10 minutes (Tropisetron was used as a positive control in every assay). Test plate and addition plate were loaded into the FlexStation III (Molecular Devices), and using the fluidics, 22.5 uL compound additions were made (at t=˜17 seconds), and fluorescence was measured for 90 seconds, reading every 2.2 seconds. Data sets were analyzed as max minus min using Software Max Pro (Molecular Devices). IC50 curves were generated using non-linear regression in GraphPad Prism.

CN1[C@@H]2COC[C@H]1C[C@@H](NC(=O)c1cn(-c3cnn(C)c3)c3ccccc13)C2 [Compound 15, 1-(1-methyl-1H-pyrazol-4-yl)-N-((1R,5S,7S)-9-methyl-3-oxa-9-azabicyclo[3.3.1]nonan-7-yl)-1H-indole-3-carboxamide, 2,2,2-trifluoroacetic acid salt]
pIC50 (nicotinic α-7 receptor): < 5.00 | pIC50 (5-HT3a receptor): 8.46 | pIC50 (5-HT3a receptor; approximate IC50, calcium flux, 5-HT3a expressed in HEK-293T cells, 5HT 216 nM, read-out: IC50): 9.18
